According to patent US20260137707A1, “METHODS OF MODULATING ATXN2 EXPRESSION” (University of Utah Research Foundation, priority 2022, published 2026):
Where a name gives a salt, the structure may show the parent alone. Read-outs that look alike come from different tables or passages of the source.

Assays:
CMV-luc = test: Secondary assays, Bright-Glo luciferase in SC cells; format: cell-based; conditions: minimum CMV-luc luciferase in SC cells over 12 doses
Description: (§1) Compounds were plated at 2× concentrations in 25 μl in 384 well plates with each compound dose plated in triplicate. An equal volume of S2, H2, or SC cells (24,000 cells/well) suspended in phenol-red free Dulbecco's Modified Eagle Medium (DMEM) with 10% fetal bovine serum and 1× penicillin/streptomycin were added. Cells were grown 24 hrs then assayed first by using the CellTiter-Fluor reagent (20 μl) followed by the addition of Bright-Glo ([…]) luciferase assay, using a multimode plate reader (Beckman DT880). Values were reported as the mean±standard deviation (SD) with n=3. IC50s were determined by the Hill coefficient method using an online tool (https://www.aatbio.com/tools/ic50-calculator).
(§2) For CMV-luc and viability charts, the fitted lines are second-order polynomials. Means and SD are shown.

in vitro = conditions: human
Description: as §1
(§3) These 46 compounds were retested at 12 doses and a zero-compound dose, in multiplexed assays in 96-well plates using CellTiter-Fluor to determine cell viability, then Bright-Glo to determine luciferase expression. The values for H2 and S2 were used as replicates to calculate IC50s and to assess cell viability.
as §2

ATXN2-luc [1] = system: ATXN2-luc
ATXN2-luc [2] = test: cells; conditions: for activity at 1 µM: read-out: Luc at 1 μm; for activity at 10 µM: read-out: Luc at 10 μm
ATXN2-luc [3] = test: Secondary assays, Bright-Glo luciferase in H2 and S2 cells; format: cell-based; conditions: for IC50: read-out: Mean IC50; for min ATXN2-luc: minimum ATXN2-luc luciferase over 12 doses, H2 and S2 cells
Description: as §1, §3, §2

ATXN2-luc [4] = conditions: average ATXN2-luc response of H2 and S1 cells
[5] = ATXN2-luc, Bright-Glo, H2 and S2 values used as replicates, 12 doses, 96-well plates
[6] = Table 1, H2 cells, 24 hrs, single 10 μM dose, Z-score of luciferase
[7] = Table 5S, pilot screen, H2 cells, 10 μM

| Compound | viability at 24 h (in vitro) | activity at 10 µM (ATXN2-luc [2]) | SD from Mean (ATXN2-luc [1]; [6]) | SD from Mean (ATXN2-luc [1]; [7]) | Luc at 1 μm (ATXN2-luc [4]) | further results |
| --- | --- | --- | --- | --- | --- | --- |
| S=C(NCc1ccc2c(c1)OCO2)N1CCN(c2ncnc3c2oc2ccccc23)CC1 [Amuvatinib] | 87.7% |  |  |  |  | min SC luc (CMV-luc): 74.26% |
| Cc1cc(Nc2cc(CN3CCOCC3)c3nc(C)c(Cc4ccc(Cl)cc4F)n3n2)n[nH]1 [Gandotinib] | 81.6% |  |  |  |  | min SC luc (CMV-luc): 67.19% |
| C[C@H]1O[C@@H](O[C@H]2[C@@H](O)C[C@H](O[C@H]3[C@@H](O)C[C@H](O[C@H]4CC[C@@]5(C)[C@H](CC[C@@H]6[C@@H]5C[C@@H](O)[C@]5(C)[C@@H](C7=CC(=O)OC7)CC[C@]65O)C4)O[C@@H]3C)O[C@@H]2C)C[C@H](O)[C@@H]1O [Digoxin] | 67.9% | 12% |  |  |  | SD from Mean (ATXN2-luc [1]): −3.904 SD; activity at 1 µM (ATXN2-luc [2]): 47% |
| C=CCNc1c(O)cc2c(O)c1C[C@@H](C)C[C@H](OC)[C@H](O)[C@@H](C)/C=C(\C)[C@H](OC(N)=O)[C@@H](OC)/C=C\C=C(/C)C(=O)N2 [Retaspimycin (IPI-504)] |  |  |  |  |  | IC50 (ATXN2-luc [3]; [5]): 546 nM; min ATXN2-luc (ATXN2-luc [3]): 24.21%; min SC luc (CMV-luc): 94.99%; viability (in vitro): 91.5% |
| C[C@@H]1O[C@@H](O[C@H]2C[C@@H](O)[C@]3(CO)[C@H]4[C@H](O)C[C@]5(C)[C@@H](C6=CC(=O)OC6)CC[C@]5(O)[C@@H]4CC[C@]3(O)C2)[C@H](O)[C@H](O)[C@H]1O [OUABAIN] |  | 12% | −3.832 SD | −3.832 SD |  | activity at 1 µM (ATXN2-luc [2]): 14%; viability (in vitro): 74.3% |
| C/C1=C2/[N-][C@H]([C@H](CC(N)=O)[C@@]2(C)CCC(=O)NC[C@@H](C)OP(=O)([O-])O[C@H]2[C@@H](O)[C@@H](n3cnc4cc(C)c(C)cc43)O[C@@H]2CO)[C@]2(C)N=C(/C(C)=C3N=C(/C=C4N=C1[C@@H](CCC(N)=O)C\4(C)C)[C@@H](CCC(N)=O)[C@]\3(C)CC(N)=O)[C@@H](CCC(N)=O)[C@]2(C)CC(N)=O.[Co] [COBALAMINE] |  |  | −5.111 SD | −5.111 SD | 126 | Luc at 10 μm (ATXN2-luc [4]): 109 |
| O=C1NC(=O)/C(=C/c2ccc3nccc(-c4ccncc4)c3c2)S1 [GSK-615] | 75.5% |  |  |  |  |  |
| C[n+]1cc2c3c(ccc2c2ccc4cc5c(cc4c21)OCO5)OCO3 [Sanguinarine] |  | 160% | −2.689 SD | −2.689 SD | 127 |  |
| CCN(CC)CCCCCCCCOC(=O)c1cc(OC)c(OC)c(OC)c1 [TMB-8] |  |  | −5.740 SD | −5.740 SD | 66 | Luc at 10 μm (ATXN2-luc [4]): 53 |
| CS(=O)(=O)Nc1ccc(Cc2noc(-c3ccc4[nH]cc(CCN)c4c3)n2)cc1 [L-694 247] |  |  | −3.156 SD | −3.156 SD | 110 | Luc at 10 μm (ATXN2-luc [4]): 6 |
| CCCCCCCCCOc1ccc2[nH]cc(CCN)c2c1 [ChemBridge ID# 5629242] |  |  | −3.609 SD |  | 110 | Luc at 10 μm (ATXN2-luc [4]): 58 |
| COc1cc2ncn(-c3cc(OCc4ccccc4C(F)(F)F)c(C(N)=O)s3)c2cc1OC [GW843682X] | 75.5% |  |  |  |  |  |
| COC(=O)C1=C(C)NC(C)=C(C(=O)OCCN(C)Cc2ccccc2)C1c1cccc([N+](=O)[O-])c1 (centres unmarked) [NICARDIPINE] |  | 61% | −2.782 SD | −2.782 SD | 112 |  |
| CNC(=O)c1nn(C)c2c1C(C)(C)Cc1cnc(Nc3ccc(N4CCN(C)CC4)cc3)nc1-2 [Milciclib] | 74.4% |  |  |  |  |  |
| Nc1ccc(-c2ccc3ncc4ccc(=O)n(-c5cccc(C(F)(F)F)c5)c4c3c2)cn1 [Torin2] |  |  |  |  |  | IC50 (ATXN2-luc [3]; [5]): 257 nM; min ATXN2-luc (ATXN2-luc [3]): 25.42%; min SC luc (CMV-luc): 128.4% |
| C1CCC(N=C(NC23CC4CC(CC(C4)C2)C3)N2CCOCC2)CC1.Cl [U-37883A] |  |  | −4.965 SD | −4.965 SD | 94 | Luc at 10 μm (ATXN2-luc [4]): 17 |
| Cyanocobalamin |  |  | −2.681 SD | −2.681 SD | 110 | Luc at 10 μm (ATXN2-luc [4]): 140 |
| CC(C)=CCc1c(O)cc2occ(-c3ccc4c(c3)OCO4)c(=O)c2c1O [DERRUBONE] |  | 15% | −3.621 SD | −3.621 SD |  | activity at 1 µM (ATXN2-luc [2]): 11% |
| O=c1[nH]c(=O)n([C@H]2C[C@H](O)[C@@H](CO)O2)cc1F [Floxuridine] | 97.9% |  |  |  |  |  |

| Compound | viability at 24 h (in vitro) | activity at 10 µM (ATXN2-luc [2]) | SD from Mean (ATXN2-luc [1]; [6]) | SD from Mean (ATXN2-luc [1]; [7]) | Luc at 1 μm (ATXN2-luc [4]) | further results |
| --- | --- | --- | --- | --- | --- | --- |
| CO[C@H]1[C@@H](O)[C@@H](C)O[C@@H](O[C@H]2CC[C@]3(C)[C@H]4CC[C@]5(C)[C@@H](C6=CC(=O)OC6)CC[C@]5(O)[C@@H]4CC[C@]3(O)C2)[C@@H]1O [EMICYMARIN] |  |  | −3.080 SD | −3.080 SD | 115 | Luc at 10 μm (ATXN2-luc [4]): 31 |
| CC(=O)O[C@H]1C[C@H](O[C@H]2[C@@H](O)C[C@H](O[C@H]3[C@@H](O)C[C@H](O[C@H]4CC[C@@]5(C)[C@H](CC[C@@H]6[C@@H]5C[C@@H](O)[C@]5(C)[C@@H](C7=CC(=O)OC7)CC[C@]65O)C4)O[C@@H]3C)O[C@@H]2C)O[C@H](C)[C@H]1O[C@@H]1O[C@H](CO)[C@@H](O)[C@H](O)[C@H]1O [LANATOSIDE C] |  |  | −4.323 SD | −4.323 SD | 39 | SD from Mean (ATXN2-luc [1]; Table 1, H2 cells, 24 hrs, single 10 μM dose, Z-score of luciferase, listed as Lanatoside C): −3.629 SD; SD from Mean (ATXN2-luc [1]; Table 5S, pilot screen, H2 cells, 10 μM, listed as Lanatoside C): −3.629 SD; Luc at 10 μm (ATXN2-luc [4]): 15 |
| C=CCn1c(=O)c2cnc(Nc3ccc(N4CCN(C)CC4)cc3)nc2n1-c1cccc(C(C)(C)O)n1 [MK-1775] | 77.9% |  |  |  |  |  |
| STROPH[…] LACTONE ACETATE |  |  | −3.855 SD | −3.855 SD | 37 | Luc at 10 μm (ATXN2-luc [4]): 20 |
| CC(C)c1cc(/C=C(\C#N)C(=O)NCCCc2ccccc2)cc(C(C)C)c1O [SU1498] |  |  | −4.885 SD | −4.885 SD | 22 | Luc at 10 μm (ATXN2-luc [4]): 15 |
| C=CCNC1=C2C[C@@H](C)C[C@H](OC)[C@H](O)[C@@H](C)/C=C(\C)[C@H](OC(N)=O)[C@@H](OC)/C=C\C=C(/C)C(=O)NC(=CC1=O)C2=O [tanespimycin] | 83.6% |  |  |  |  | IC50 (ATXN2-luc [3]): 442 nM |
| CN(C)CCN1C(=O)c2cccc3cc(N)cc(c23)C1=O [Amonafide] | 68.2% |  |  |  |  |  |
| C[C@]12CC[C@H]3[C@@H](CC[C@]4(O)C[C@@H](O)CC[C@]34C=O)[C@@]1(O)CC[C@@H]2C1=CC(=O)OC1 [STROPHANTHIDIN] |  | 15% |  | −4.451 SD |  | activity at 1 µM (ATXN2-luc [2]): 16% |
| CC[C@@]1(O)C(=O)OCc2c1cc1n(c2=O)Cc2cc3ccccc3nc2-1 [Camptothecin] |  |  |  |  |  | IC50 (ATXN2-luc [3]; [5]): 40 nM; viability at 24 h (in vitro; H2, S2 and SC cells): 92.1% |
| C[C@]12CC[C@H](O)C[C@H]1CC[C@@H]1[C@@H]2CC[C@]2(C)[C@@H](C3=CC(=O)OC3)CC[C@]12O [Digitoxigenin] |  | 13% | −3.629 SD | −3.629 SD |  | activity at 1 µM (ATXN2-luc [2]): 38% |
| CO[C@H]1[C@H](O)[C@H](O[C@H]2CC[C@@]3(C)[C@H](CC[C@@H]4[C@@H]3CC[C@]3(C)[C@@H](C5=CC(=O)OC5)CC[C@]43O)C2)O[C@@H](C)[C@@H]1O [NERIIFOLIN] |  | 17% | −3.045 SD |  |  | activity at 1 µM (ATXN2-luc [2]): 17% |
| C[C@H]1O[C@@H](O[C@H]2[C@@H](O)C[C@H](O[C@H]3[C@@H](O)C[C@H](O[C@H]4CC[C@@]5(C)[C@H](CC[C@@H]6[C@@H]5CC[C@]5(C)[C@@H](C7=CC(=O)OC7)CC[C@]65O)C4)O[C@@H]3C)O[C@@H]2C)C[C@H](O)[C@@H]1O [DIGITOXIN] |  | 19% | −4.100 SD | −4.100 SD |  | activity at 1 µM (ATXN2-luc [2]): 27% |
| CC(C)c1cc(C(=O)N2Cc3ccc(CN4CCN(C)CC4)cc3C2)c(O)cc1O [Onalespib (AT-13387AU)] | 90.6% |  |  |  |  |  |
| CCCCCCCCCOc1ccc2[nH]cc(CCN)c2c1 [5-Nonyloxytryptamine] |  | 5% | −3.607 SD |  |  |  |
| O=C(NC1CCNCC1)c1n[nH]cc1NC(=O)c1c(Cl)cccc1Cl [AT7519] | 50.3% |  |  |  |  |  |
| CC[C@H]1CN2CCc3cc(OC)c(OC)cc3[C@@H]2C[C@@H]1C[C@H]1NCCc2cc(O)c(OC)cc21.Cl.Cl.O.O.O.O.O.O.O [Cephaeline dihydrochloride heptahydrate] |  |  | −4.055 SD | −4.055 SD | 16 | Luc at 10 μm (ATXN2-luc [4]): 17 |
| COc1ccc(CN2CCN(C(c3ccc(F)cc3)c3ccc(F)cc3)CC2)c(OC)c1OC [LOMERIZINE DiHCl] |  | 55% | −2.782 SD | −2.782 SD | 102 |  |
| CC[C@H]1CN2CCc3cc(OC)c(OC)cc3[C@@H]2C[C@@H]1C[C@H]1NCCc2cc(OC)c(OC)cc21 [Emetine dihydrochloride] |  | 19% | −4.840 SD | −4.840 SD |  | activity at 1 µM (ATXN2-luc [2]): 18% |
